According to US20250108037A1, “COMPOSITION CONTAINING ERGOTHIONEINE FOR SUPPRESSING OR PREVENTING INNER EAR HEARING LOSS” (MITSUBISHI GAS CHEMICAL COMPANY, INC., priority 2021, published 2025):

System: C57BL/6J mouse, age-related hearing loss model
Assay: ABR (auditory brainstem response) test in age-related hearing loss model mice after oral administration once a day
Format: in vivo
Settings: given as yeast extract powder

C[N+](C)(C)[C@@H](Cc1c[nH]c(=S)[nH]1)C(=O)[O-] [ergothioneine, Ergothioneine]
hearing loss suppression effect (Example 2, Tables 5 and 6, 24 and 32 kHz): confirmed at either frequency, but was particularly remarkable at 24 kHz
progression of hearing loss (conclusion from the ABR results): delayed
